# Assay results taken from patent US20260347361A1, “LRRK2 INHIBITORS AND USES THEREOF” (NEURON23, INC, priority 2022, published 2026).
# Biological target: T1, wt human LRRK2 (Homo sapiens, UniProt Q5S007)
# T1 construct: wt human LRRK2, catalytic site, catalytic site (ThermoFisher/USA); purchased ThermoFisher
# Test: TR-FRET LanthaScreen Tb Kinase Activity Assay, inhibition of LRRK2 kinase
# Format: biochemical
# Conditions: 2 nM wt human LRRK2, 400 nM fluorescein-ERM (LRRKtide) peptide, 38 µM ATP, 15 min pre-incubation, 120 min at room temperature
# Experimental: In Table 2, activity is provided as the following: “+++”=IC50 less than 50 nM; “++”=IC50 between 50 nM and 200 nM; “+”=IC50> or =200 nM.
# The compounds listed in Table 2 were tested for their inhibitory effect on LRRK2 kinase according to the following procedures.
# The protocol for basic TR-FRET LanthaScreen Tb Kinase Activity Assay inhibitor studies were as follows. LanthaScreen Kinase Activity Assays (ThermoFisher/USA) to evaluate inhibitors were performed by addition of 100 nl of test compound in corresponding DMSO dilutions/5 μl of kinase/fluorescein-ERM(LRRKtide) peptide mixture, Compound & kinase were pre-incubated for 15 minutes, then 5 μl of ATP into 384 well small volume plates. After incubation for 120 minutes at room temperature, the detection reagents containing Tb-anti-pLRRKtide antibody were added to monitor phosphorylation level of peptide. Then, after 60 min minutes incubation at room temperature plates were read in Envision. Data analysis of emission ratios was according to LanthaScreen Tb Kinase Activity Assay protocol.
# Kinase and assay components were adjusted to final concentrations according to the kit protocol. For LRRK2: 2 nM wt human LRRK2, catalytic site, catalytic site (ThermoFisher/USA), 400 nM peptide, 38 µM ATP in 1× Kinase Buffer A.
# Basic protocol for TR-FRET LanthaScreen Tb Kinase Activity Assay inhibitor studies involved two steps:
# Enzymatic step: Addition of […] of test compound in corresponding DMSO dilutions, 5 μL of kinase/substrate mixture, 5 μL of ATP into 384 well small volume plates. Incubation for 120 minutes at room temperature.
# Detection step: Addition of 10 μL EDTA & antibody, read plate after 60 minutes. Data analysis of emission ratios according to KinEASE assay protocol.
# Kinase and assay components were adjusted to final concentrations according to the kit protocol.
# T1 sequence (Q5S007 970-2527 limits assumed): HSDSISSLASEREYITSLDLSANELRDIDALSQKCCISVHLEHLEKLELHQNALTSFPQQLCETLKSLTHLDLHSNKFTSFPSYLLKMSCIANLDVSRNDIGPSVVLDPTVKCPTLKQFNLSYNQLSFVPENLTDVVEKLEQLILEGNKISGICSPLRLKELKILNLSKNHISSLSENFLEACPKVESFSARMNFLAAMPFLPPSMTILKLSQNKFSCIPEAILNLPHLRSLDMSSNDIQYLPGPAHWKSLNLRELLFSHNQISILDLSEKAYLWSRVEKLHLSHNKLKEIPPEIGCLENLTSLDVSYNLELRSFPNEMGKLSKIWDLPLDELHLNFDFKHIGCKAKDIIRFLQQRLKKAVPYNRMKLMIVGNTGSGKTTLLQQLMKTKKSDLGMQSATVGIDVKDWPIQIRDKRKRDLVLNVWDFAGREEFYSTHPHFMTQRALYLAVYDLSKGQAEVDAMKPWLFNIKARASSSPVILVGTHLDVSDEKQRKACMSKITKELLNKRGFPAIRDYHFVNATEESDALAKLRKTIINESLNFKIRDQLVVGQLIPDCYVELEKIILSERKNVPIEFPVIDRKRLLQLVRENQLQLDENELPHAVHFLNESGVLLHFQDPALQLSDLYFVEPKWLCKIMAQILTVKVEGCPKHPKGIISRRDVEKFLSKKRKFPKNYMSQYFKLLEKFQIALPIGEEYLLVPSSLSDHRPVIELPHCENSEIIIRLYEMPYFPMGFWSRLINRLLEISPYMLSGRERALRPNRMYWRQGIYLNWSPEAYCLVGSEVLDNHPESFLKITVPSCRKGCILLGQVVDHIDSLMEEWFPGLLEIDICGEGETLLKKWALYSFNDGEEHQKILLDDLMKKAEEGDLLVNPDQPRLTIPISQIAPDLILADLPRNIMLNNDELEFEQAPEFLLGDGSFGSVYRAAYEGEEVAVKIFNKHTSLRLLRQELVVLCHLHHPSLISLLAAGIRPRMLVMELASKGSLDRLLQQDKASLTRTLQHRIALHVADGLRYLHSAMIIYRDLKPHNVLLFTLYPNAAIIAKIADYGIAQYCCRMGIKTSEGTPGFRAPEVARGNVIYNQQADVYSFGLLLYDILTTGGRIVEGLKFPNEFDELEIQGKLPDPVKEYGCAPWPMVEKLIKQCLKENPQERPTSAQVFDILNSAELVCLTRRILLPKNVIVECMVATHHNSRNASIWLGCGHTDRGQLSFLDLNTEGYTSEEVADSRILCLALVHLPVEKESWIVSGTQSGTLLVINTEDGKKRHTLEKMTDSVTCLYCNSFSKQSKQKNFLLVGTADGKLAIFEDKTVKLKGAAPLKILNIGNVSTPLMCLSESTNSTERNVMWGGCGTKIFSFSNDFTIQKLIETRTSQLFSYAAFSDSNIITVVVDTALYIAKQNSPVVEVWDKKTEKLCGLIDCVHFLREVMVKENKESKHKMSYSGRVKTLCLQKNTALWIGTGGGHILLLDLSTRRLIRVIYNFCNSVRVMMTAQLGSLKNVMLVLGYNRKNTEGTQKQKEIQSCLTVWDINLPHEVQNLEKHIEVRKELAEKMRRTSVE
row,SMILES,IC50 [nM]
1,"CONC(=O)c1ccc2c(c1)-n1ncc(Cl)c1N=C(c1c(F)cccc1F)N2 [3-chloro-5-(2,6-difluorophenyl)-N-methoxy-6H-pyrazolo[1,5-a][1,3,5]benzotriazepine-9-carboxamide]",< 50
2,"Fc1cccc(F)c1C1=Nc2c(Cl)cnn2-c2cc(N3CCNC4(CC4)C3)ccc2N1 [3-chloro-9-(4,7-diazaspiro[2.5]octan-7-yl)-5-(2,6-difluorophenyl)-6H-pyrazolo[1,5-a][1,3,5]benzotriazepine]",< 50
3,"Fc1cccc(F)c1C1=Nc2c(Cl)cnn2-c2cc(N3CC4CCC(C3)O4)ncc2N1 [3-(3-Chloro-5-(2,6-difluorophenyl)-6H-pyrazolo[1,5-a]pyrido[3,4-f][1,3,5]triazepin-9-yl)-8-oxa-3-azabicyclo[3.2.1]octane]",< 50
4,"C[C@H]1CN(c2cc3c(cn2)NC(c2c(F)cccc2F)=Nc2c(F)cnn2-3)C[C@H](C)O1 [(2S,6S)-4-(5-(2,6-difluorophenyl)-3-fluoro-6H-pyrazolo[1,5-a]pyrido[3,4-f][1,3,5]triazepin-9-yl)-2,6-dimethylmorpholine]",50 to 200
5,"O=C(NC1CCCC1)c1ccc2c(c1)-n1ncc(Cl)c1N=C(c1c(F)cccc1F)N2 [3-chloro-N-cyclopentyl-5-(2,6-difluorophenyl)-6H-pyrazolo[1,5-a][1,3,5]benzotriazepine-9-carboxamide]",< 50
6,"C[C@@H]1CN(c2ccc3c(c2)-n2ncc(Cl)c2N=C(c2c(F)cccc2F)N3)C[C@@H](C)O1 [(2R,6R)-4-(3-chloro-5-(2,6-difluorophenyl)-6H-benzo[f]pyrazolo[1,5-a][1,3,5]triazepin-9-yl)-2,6-dimethylmorpholine]",< 50
7,"Fc1cccc(Cl)c1C1=Nc2c(Cl)cnn2-c2cc(N3CCOCC3)ncc2N1 [4-(3-chloro-5-(2-chloro-6-fluorophenyl)-6H-pyrazolo[1,5-a]pyrido[3,4-f][1,3,5]triazepin-9-yl)morpholine]",< 50
8,"CC1CN(c2ccc3c(c2)-n2ncc(Cl)c2N=C(c2c(F)cccc2F)N3)CC(C)O1 (stereo not shown) [4-[3-chloro-5-(2,6-difluorophenyl)-6H-pyrazolo[1,5-a][1,3,5]benzotriazepin-9-yl]-2,6-dimethyl-morpholine]",< 50
9,"Fc1cc(F)c(C2=Nc3c(Cl)cnn3-c3cc(N4CCOCC4)ncc3N2)c(F)c1 [4-(3-chloro-5-(2,4,6-trifluorophenyl)-6H-pyrazolo[1,5-a]pyrido[3,4-f][1,3,5]triazepin-9-yl)morpholine]",< 50
10,"COCCNC(=O)c1ccc2c(c1)-n1ncc(Cl)c1N=C(c1c(F)cccc1F)N2 [3-chloro-5-(2,6-difluorophenyl)-N-(2-methoxyethyl)-6H-pyrazolo[1,5-a][1,3,5]benzotriazepine-9-carboxamide]",< 50
11,"COC1CN(c2ccc3c(c2)-n2ncc(Cl)c2N=C(c2c(F)cccc2F)N3)C1 [3-chloro-5-(2,6-difluorophenyl)-9-(3-methoxyazetidin-1-yl)-6H-pyrazolo[1,5-a][1,3,5]benzotriazepine]",< 50
12,"Fc1cccc(F)c1C1=Nc2ccnn2-c2cc(N3CCOCC3)ncc2N1 [4-(5-(2,6-difluorophenyl)-6H-pyrazolo[1,5-a]pyrido[3,4-f][1,3,5]triazepin-9-yl)morpholine]",< 50
13,"Fc1cccc(F)c1C1=Nc2c(Cl)cnn2-c2cc(N3C[C@H]4C[C@@H]3CO4)ccc2N1 [(1R,4R)-5-[3-chloro-5-(2,6-difluorophenyl)-6H-pyrazolo[1,5-a][1,3,5]benzotriazepin-9-yl]-2-oxa-5-azabicyclo[2.2.1]heptane]",< 50
14,"Fc1cccc(F)c1C1=Nc2c(Cl)cnn2-c2cc(N3CCOCC3)ncc2N1 [4-(3-Chloro-5-(2,6-difluorophenyl)-6H-pyrazolo[1,5-a]pyrido[3,4-f][1,3,5]triazepin-9-yl)morpholine]",< 50
15,"CC(C)NC(=O)c1ccc2c(c1)-n1ncc(Cl)c1N=C(c1c(F)cccc1F)N2 [3-chloro-5-(2,6-difluorophenyl)-N-isopropyl-6H-pyrazolo[1,5-a][1,3,5]benzotriazepine-9-carboxamide]",< 50
16,"Fc1cccc(F)c1C1=Nc2c(Cl)cnn2-c2cc(N3CCCC3)ccc2N1 [3-chloro-5-(2,6-difluorophenyl)-9-(pyrrolidin-1-yl)-6H-benzo[f]pyrazolo[1,5-a][1,3,5]triazepine]",< 50
17,Fc1cccc(F)c1C1=Nc2c(Cl)cnn2-c2cc(-c3cn[nH]c3)ccc2N1,< 50
18,"C[C@H]1CN(c2ccc3c(c2)-n2ncc(Cl)c2N=C(c2c(F)cccc2F)N3)C[C@H](C)O1 [(2S,6S)-4-(3-chloro-5-(2,6-difluorophenyl)-6H-benzo[f]pyrazolo[1,5-a][1,3,5]triazepin-9-yl)-2,6-dimethylmorpholine]",< 50
19,"CN(C)C(=O)c1ccc2c(c1)-n1ncc(Cl)c1N=C(c1c(F)cccc1F)N2 [3-chloro-5-(2,6-difluorophenyl)-N,N-dimethyl-6H-pyrazolo[1,5-a][1,3,5]benzotriazepine-9-carboxamide]",50 to 200
20,"Fc1cccc(F)c1C1=Nc2c(Cl)cnn2-c2cc(N3CCNCC3)ccc2N1 [3-chloro-5-(2,6-difluorophenyl)-9-piperazin-1-yl-6H-pyrazolo[1,5-a][1,3,5]benzotriazepine]",< 50
21,"Fc1cccc(N2CCOCC2)c1C1=Nc2c(Cl)cnn2-c2cc(N3CCOCC3)ccc2N1 [4-[3-chloro-5-(2-fluoro-6-morpholino-phenyl)-6H-pyrazolo[1,5-a][1,3,5]benzotriazepin-9-yl]morpholine]",> 200
22,"COC1CCN(c2ccc3c(c2)-n2ncc(Cl)c2N=C(c2c(F)cccc2F)N3)C1 (racemic) [3-chloro-5-(2,6-difluorophenyl)-9-(3-methoxypyrrolidin-1-yl)-6H-pyrazolo[1,5-a][1,3,5]benzotriazepine]",< 50

# Next, values leading:
row,IC50 [nM],SMILES
1,< 50,"Fc1cccc(F)c1C1=Nc2c(Cl)cnn2-c2cc(N3CCC(F)(F)C3)ccc2N1 [3-chloro-5-(2,6-difluorophenyl)-9-(3,3-difluoropyrrolidin-1-yl)-6H-pyrazolo[1,5-a][1,3,5]benzotriazepine]"
2,< 50,"Fc1cccc(F)c1C1=Nc2ccnn2-c2cc(N3CCOCC3)ccc2N1 [4-[5-(2,6-difluorophenyl)-6H-pyrazolo[1,5-a][1,3,5]benzotriazepin-9-yl]morpholine]"
3,< 50,"Fc1cccc(F)c1C1=Nc2c(Cl)cnn2-c2cc(N3CCOCC3)ccc2N1 [4-[3-chloro-5-(2,6-difluorophenyl)-6H-pyrazolo[1,5-a][1,3,5]benzotriazepin-9-yl]morpholine]"
4,< 50,"Fc1cccc(F)c1C1=Nc2c(F)cnn2-c2cc(N3CCOCC3)ncc2N1 [4-(5-(2,6-difluorophenyl)-3-fluoro-6H-pyrazolo[1,5-a]pyrido[3,4-f][1,3,5]triazepin-9-yl)morpholine]"
5,< 50,"Fc1cccc(F)c1C1=Nc2c(Cl)cnn2-c2cc(N3C[C@H]4CC[C@@H](C3)O4)ccc2N1 [(1R,5S)-3-[3-chloro-5-(2,6-difluorophenyl)-6H-pyrazolo[1,5-a][1,3,5]benzotriazepin-9-yl]-8-oxa-3-azabicyclo[3.2.1]octane]"
6,< 50,"CNC(=O)c1ccc2c(c1)-n1ncc(Cl)c1N=C(c1c(F)cccc1F)N2 [3-chloro-5-(2,6-difluorophenyl)-N-methyl-6H-pyrazolo[1,5-a][1,3,5]benzotriazepine-9-carboxamide]"
7,< 50,"O=C(NCCF)c1cnc2c(c1)-n1ncc(Cl)c1N=C(c1c(F)cccc1F)N2 [5-chloro-8-(2,6-difluorophenyl)-N-(2-fluoroethyl)-2,3,7,9,11-pentazatricyclo[8.4.0.02,6]tetradeca-1(10),3,5,7,11,13-hexaene-13-carboxamide]"
8,< 50,"COC(=O)c1cnc2c(c1)-n1ncc(Cl)c1N=C(c1c(F)cccc1F)N2 [Methyl 5-chloro-8-(2,6-difluorophenyl)-2,3,7,9,11-pentazatricyclo[8.4.0.02,6]tetradeca-1(10),3,5,7,11,13-hexaene-13-carboxylate]"
9,< 50,"COC(=O)c1ccc2c(c1)-n1ncc(Cl)c1N=C(c1c(F)cccc1F)N2 [Methyl 3-chloro-5-(2,6-difluorophenyl)-6H-pyrazolo[1,5-a][1,3,5]benzotriazepine-9-carboxylate]"
10,50 to 200,"C[C@@H]1CN(c2ccc3c(c2)-n2ncc(Cl)c2N=C(c2c(F)cccc2F)N3)C[C@H](C)O1 [(2R,6S)-4-(3-chloro-5-(2,6-difluorophenyl)-6H-benzo[f]pyrazolo[1,5-a][1,3,5]triazepin-9-yl)-2,6-dimethylmorpholine]"
11,< 50,"Fc1cccc(F)c1C1=Nc2c(Cl)cnn2-c2cc(N3CC4CC3CO4)ccc2N1 (racemic) [5-(3-chloro-5-(2,6-difluorophenyl)-6H-benzo[f]pyrazolo[1,5-a][1,3,5]triazepin-9-yl)-2-oxa-5-azabicyclo[2.2.1]heptane]"
12,> 200,CC(C)S(=O)(=O)NC(=O)c1ccc2c(c1)-n1ncc(Cl)c1N=C(c1c(F)cccc1F)N2
